Results reported in US8349851B2, “JAK kinase modulating compounds and methods of use thereof” (Ambit Biosciences Corp., priority 2009, dated 2013).
Structures can show the parent of a compound that is named as a salt.

Tests used:
AuroraB = target: T1, AuroraB (Homo sapiens, UniProt Q96GD4); test: Competition binding assay, Aurora B
T1 construct: made in house
Excerpt: Methods for determining binding constant against Aurora B kinase are known to one of skill in the art. Exemplary methods are described in U.S. provisional application No. 61/294,413, and Fabian et al., Nature Biotechnology 2005, 23,329-336.
(§1) Competition binding assays used herein were developed, validated and performed as described in Fabian et al., Nature Biotechnology 2005, 23,329-336. Kinases were produced as fusions to T7 phage (See, Fabian et al. or WO04/015142) or alternatively, the kinases were expressed in HEK-293 cells and subsequently tagged with DNA for PCR detection (See, WO08/005310). For the binding assays, streptavidin-coated magnetic beads were treated with biotinylated affinity ligands for 30 min at rt to generate affinity resins. The liganded beads were blocked with excess biotin and washed with blocking buffer (SeaBlock (Pierce), 1% BSA, 0.05% Tween 20, 1 mM DTT) to remove unbound ligand and to reduce non-specific binding. […] Test compounds were prepared as 100× stocks in DMSO and rapidly diluted into the aqueous environment. DMSO was added to control assays lacking a test compound. Primary screen interactions were performed in polypropylene 384-well plates in a final volume of 34 μL, while Kd determinations were performed in polystyrene 96-well plates in a final volume of 135 μL. […] The kinase concentration in the eluates was measured by quantitative PCR. Each kinase was tested individually against each compound. Kds were determined using eleven serial threefold dilutions. A selectivity score, which is a quantitative measure of selectivity of a compound against a panel of enzymes, may be calculated for a compound by dividing the number of enzymes for which a compound meets a set criteria, (for example, a binding constant of 100 nM or less), by the total number of enzymes tested.

JAK2 = target: T2, JAK2 (Homo sapiens, UniProt O60674); test: Competition binding assay, JAK2; conditions: read-out: Binding Assay: JAK2 (active_KD)
T2 construct: made in house
Excerpt: (§2) Competition Binding Assay to Determine Binding Constants (Kd) of the Compounds Against JAK Kinases
as §1

[1] = test system: csTF-1 cells (GM-CSFR/JAK2/STAT5 pathway); test: csTF-1 cell-based reporter assay; parameters: species or system human; conditions: Homo sapiens; GM-CSF at 2 ng/mL, 4 hours; read-out: Cell Assay: CS0017: CS TF-1 reporter assay: IC50
Experimental: csTF-1 Cell-based Reporter Assay
csTF-1 cells are derived from the human erythroleukemia cell line that is growth dependent on GM-CSF and has an intact GM-CSFR/JAK2/STAT5 pathway. The cell line contains stably integrated beta-lactamase reporter gene under the control of the […] (irf 1) response element recognized by the activated transcription factor STATS. csTF-1 cells (Invitrogen K1219) were washed with assay media (97% OPTIMEM/0.5% dialyzed FBS/0.1 mM NEAA/1 mM Na pyr/P/S) and seeded in the same media at 5×10^5 cell/mL in T150 flask. After 16 hour incubation, cells were seeded at 2×10^5 cell/well in 50 μl volume, into Costar, clear bottom, 96-well assay plates. Serial dilutions of compounds were added to the plates with final DMSO concentration at 0.5% and GM-CSF at 2 ng/mL and the plates were then incubated at […] and 5% CO2 for 4 hours. The plates were brought to room temperature before adding Substrate Mixture according to manufacturer's protocol (Invitrogen, Catalog #K1085). The assay plates containing the substrate mixture were incubated in the dark at room temperature for 2 hours. Blue and green fluorescence was measured with excitation at 409 nm and emission at 460 nm (for blue) and excitation at 409 nm and emission at 530 nm (for green) using Spectra Max Gemini EM.

JAK3 = target: T3, JAK3 (Homo sapiens, UniProt P52333); test: Competition binding assay, JAK3; conditions: read-out: Binding Assay: JAK3 (active_KD, ENZ)
T3 construct: made in house
Excerpt: as §2, §1

T2 sequence (O60674 849-1124 limits assumed): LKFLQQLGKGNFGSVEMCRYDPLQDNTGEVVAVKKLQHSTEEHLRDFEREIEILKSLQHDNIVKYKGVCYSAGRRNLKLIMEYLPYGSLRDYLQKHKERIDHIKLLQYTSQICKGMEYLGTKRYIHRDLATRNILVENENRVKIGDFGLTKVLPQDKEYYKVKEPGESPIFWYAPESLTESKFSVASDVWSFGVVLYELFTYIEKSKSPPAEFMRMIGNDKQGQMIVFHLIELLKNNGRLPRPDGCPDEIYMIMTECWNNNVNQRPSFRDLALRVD
T3 sequence (P52333 822-1111 limits assumed): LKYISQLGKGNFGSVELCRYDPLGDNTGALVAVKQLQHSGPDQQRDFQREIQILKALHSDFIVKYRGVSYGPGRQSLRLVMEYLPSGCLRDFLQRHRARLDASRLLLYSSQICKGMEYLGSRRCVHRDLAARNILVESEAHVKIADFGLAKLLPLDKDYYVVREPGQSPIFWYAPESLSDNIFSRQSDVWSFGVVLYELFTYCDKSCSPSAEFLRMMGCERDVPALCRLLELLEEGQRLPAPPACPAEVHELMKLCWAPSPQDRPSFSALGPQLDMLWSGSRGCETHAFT
T1 sequence (Q96GD4 whole entry): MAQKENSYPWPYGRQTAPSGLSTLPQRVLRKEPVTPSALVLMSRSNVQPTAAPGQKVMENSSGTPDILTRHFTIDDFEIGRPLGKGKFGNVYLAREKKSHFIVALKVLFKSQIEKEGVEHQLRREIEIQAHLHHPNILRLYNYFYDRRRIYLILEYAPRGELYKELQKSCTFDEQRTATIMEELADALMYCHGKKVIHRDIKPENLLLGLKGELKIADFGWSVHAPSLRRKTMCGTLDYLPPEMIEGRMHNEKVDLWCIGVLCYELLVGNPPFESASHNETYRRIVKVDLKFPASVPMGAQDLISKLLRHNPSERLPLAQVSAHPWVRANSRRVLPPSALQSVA

| Kd (AuroraB) | Kd (JAK2) | IC50 [1] | Kd (JAK3) | SMILES |
| --- | --- | --- | --- | --- |
| > 200 nM | 1 to 10 nM | 100 to 500 nM | 10 to 100 nM | Cc1cc(Nc2nc(C(N)c3ccc(F)cc3)nc3ccccc23)n[nH]1 (racemic) [Example 14, (R,S)-2-(amino(4-fluorophenyl)methyl)-N-(5-methyl-1H-pyrazol-3-yl)quinazolin-4-amine] |
| 50 to 200 nM |  | ≤ 100 nM |  | Cc1cc(Nc2nc(C(O)c3ccc(F)cc3)nc3ccccc23)n[nH]1 (racemic) [Example 12, (R,S)-(4-fluorophenyl)(4-(5-methyl-1H-pyrazol-3-ylamino)quinazolin-2-yl)methanol hydrochloride] |
| > 200 nM | ≤ 1 nM | 100 to 500 nM | 10 to 100 nM | COC(=O)NC(c1ccc(F)cc1)c1nc(Nc2cc(C)[nH]n2)c2ccccc2n1 (racemic) [Example 45, (R,S)-methyl (4-fluorophenyl)(4-(5-methyl-4H-pyrazol-3-ylamino)quinazolin-2-yl) methylcarbamate] |
| > 200 nM | 1 to 10 nM | ≤ 100 nM | 10 to 100 nM | Cc1cc(Nc2nc(C(O)c3ccc(F)cc3)nc3cc(Cl)ccc23)n[nH]1 (racemic) [Example 52, (R,S) (7-chloro-4-(5-methyl-1H-pyrazol-3-ylamino)quinazolin-2-yl)(4-fluorophenyl)methanol] |
| > 200 nM | ≤ 1 nM | 100 to 500 nM | 10 to 100 nM | COC(c1ccc(F)cc1)c1nc(Nc2cc(C)[nH]n2)c2ccccc2n1 (racemic) [Example 13, (R,S)-2-((4-fluorophenyl)(methoxy)methyl)-N-(5-methyl-1H-pyrazol-3-yl)quinazolin-4-amine] |
| > 200 nM | > 10 nM | > 500 nM | > 100 nM | N#Cc1cc(Nc2nc(C(O)c3ccc(F)cc3)nc3ccccc23)n[nH]1 (racemic) [Example 15, (R,S)-3-(2-((4-fluorophenyl)(hydroxy)methyl)quinazolin-4-ylamino)-1H-pyrazole-5-carbonitrile] |
| 20 to 50 nM | ≤ 1 nM | ≤ 100 nM | 10 to 100 nM | Cc1cc(Nc2nc(C(O)c3ccc(F)cc3)nc3cc(O)ccc23)n[nH]1 (racemic) [Example 36, (R,S)-2-((4-fluorophenyl)(hydroxy)methyl)-4-(5-methyl-1H-pyrazol-3-ylamino)quinazolin-7-ol] |

The next lines start with the compound.

| SMILES | Kd (AuroraB) | Kd (JAK2) | IC50 [1] | Kd (JAK3) |
| --- | --- | --- | --- | --- |
| COc1ccc2c(Nc3cc[nH]n3)nc(C(F)(F)c3ccc(F)cc3)nc2c1 [Example 33, 2-(difluoro(4-fluorophenyl)methyl)-7-methoxy-N-(1H-pyrazol-3-yl)quinazolin-4-amine] | 50 to 200 nM | 1 to 10 nM | 100 to 500 nM | > 100 nM |
| Cc1cc(Nc2nc(C(O)c3ccc(F)cc3)nc3cc(OCC(=O)OC(C)(C)C)ccc23)n[nH]1 (racemic) [Example 43, (R,S)-tert-butyl 2-(2-((4-fluorophenyl)(hydroxy)methyl)-4-(5-methyl-1H-pyrazol-3-ylamino)quinazolin-7-yloxy)acetate] | > 200 nM | ≤ 1 nM | 100 to 500 nM | 10 to 100 nM |
| COc1ccc2c(Nc3cc(C)[nH]n3)nc(C(F)(F)c3ccc(F)cc3)nc2c1 [Example 32, 2-(difluoro(4-fluorophenyl)methyl)-7-methoxy-N-(5-methyl-1H-pyrazol-3-yl)quinazolin-4-amine] | > 200 nM | ≤ 1 nM | ≤ 100 nM | 10 to 100 nM |
| Cc1cc(Nc2nc(C(O)(c3ccc(F)cc3)c3ccc(F)cc3)nc3ccccc23)n[nH]1 [bis-(4-fluoro-phenyl)-[4-(5-methyl-1H-pyrazol-3-ylamino)-quinazolin-2-yl]-methanol] | > 200 nM | > 10 nM | > 500 nM | > 100 nM |
| Cc1cc(Nc2nc(C(O)c3ccc(F)cc3)nc3cc(OCCCO)ccc23)n[nH]1 (racemic) [Example 40, (R,S)-3-(2-((4-fluorophenyl)(hydroxy)methyl)-4-(5-methyl-1H-pyrazol-3-ylamino)quinazolin-7-yloxy)propan-1-ol] | > 200 nM | ≤ 1 nM | ≤ 100 nM | ≤ 10 nM |
| COCCOc1ccc2c(Nc3cc(C)[nH]n3)nc(C(O)c3ccc(F)cc3)nc2c1 (racemic) [Example 42, (R,S)-(4-fluorophenyl)(7-(2-methoxyethoxy)-4-(5-methyl-1H-pyrazol-3-ylamino)quinazolin-2-yl)methanol] | > 200 nM | ≤ 1 nM | ≤ 100 nM | ≤ 10 nM |
| COc1ccc2c(Nc3cc[nH]n3)nc(C(O)c3ccc(F)cc3)nc2c1 (racemic) [Example 29, (R,S)-(4-(1H-pyrazol-3-ylamino)-7-methoxyquinazolin-2-yl)(4-fluorophenyl)methanol] | > 200 nM | ≤ 1 nM | ≤ 100 nM | 10 to 100 nM |
| Cc1cc(Nc2nc(C(=O)c3ccc(F)cc3)nc3cc(O)ccc23)n[nH]1 [Example 37, (4-fluorophenyl)(7-hydroxy-4-(5-methyl-1H-pyrazol-3-ylamino)quinazolin-2-yl)methanone] | > 200 nM | ≤ 1 nM | ≤ 100 nM | 10 to 100 nM |
| Cc1cc(Nc2nc(C(O)c3ccc(F)cc3)nc3cccc(F)c23)n[nH]1 (racemic) [Example 16, (R,S)-(5-fluoro-4-(5-methyl-1H-pyrazol-3-ylamino)quinazolin-2-yl)(4-fluorophenyl)methanol] | > 200 nM | > 10 nM | 100 to 500 nM | > 100 nM |
| Cc1cc(Nc2nc(C(F)(F)c3ccc(F)cc3)nc3cc(F)ccc23)n[nH]1 [Example 20, 2-(difluoro(4-fluorophenyl)methyl)-7-fluoro-N-(5-methyl-1H-pyrazol-3-yl)quinazolin-4-amine] | > 200 nM | ≤ 1 nM | ≤ 100 nM | 10 to 100 nM |
| COc1ccccc1C(=O)c1nc(Nc2cc[nH]n2)c2ccccc2n1 [Example 5, (4-(1H-pyrazol-3-ylamino)quinazolin-2-yl)(2-methoxyphenyl)methanone] | > 200 nM | 1 to 10 nM | 100 to 500 nM | > 100 nM |
| Cc1cc(Nc2nc(C(O)c3ccc(F)cc3)nc3cc(OCCN4CCOCC4)ccc23)n[nH]1 (racemic) [Example 38, (R,S)-(4-fluorophenyl)(4-(5-methyl-1H-pyrazol-3-ylamino)-7-(2-morpholinoethoxy)quinazolin-2-yl)methanol] | > 200 nM | ≤ 1 nM | 100 to 500 nM | ≤ 10 nM |
| Cc1cc(Nc2nc(C(=O)c3ccc(F)cc3)nc3c(F)cccc23)n[nH]1 [Example 60, (8-fluoro-4-(5-methyl-1H-pyrazol-3-ylamino)quinazolin-2-yl)(4-fluorophenyl)methanone] |  | 1 to 10 nM | 100 to 500 nM | > 100 nM |
| Fc1ccc(C(F)(F)c2nc(Nc3cc[nH]n3)c3ccc(F)cc3n2)cc1 [Example 21, 2-(difluoro(4-fluorophenyl)methyl)-7-fluoro-N-(1H-pyrazol-3-yl)quinazolin-4-amine] |  | 1 to 10 nM | 100 to 500 nM | 10 to 100 nM |
| Cc1cc(Nc2nc(C(=O)c3ccc(F)cc3)nc3ccc(F)cc23)n[nH]1 [Example 53, (6-fluoro-4-(5-methyl-1H-pyrazol-3-ylamino)quinazolin-2-yl)(4-fluorophenyl)methanone] |  | 1 to 10 nM | 100 to 500 nM | > 100 nM |
| OC(c1ccc(F)cc1)c1nc(Nc2cc[nH]n2)c2cc(F)ccc2n1 (racemic) [Example 55, (R,S)-(4-(1H-pyrazol-3-ylamino)-6-fluoroquinazolin-2-yl)(4-fluorophenyl)methanol] |  | 1 to 10 nM | > 500 nM | > 100 nM |
